Measured values from article PMC9500072, “Topical application of an irreversible small molecule inhibitor of lysyl oxidases ameliorates skin scarring and fibrosis” (Nature Communications, 2022).
“And” between values parts separate entries of the source, which are not always exact repeats. Equal entries are not always repeated. Where two headings read alike, the source gives them in different places.

Legend:
Assay type in all cases: biochemical
[1] = target: T1, Recombinant human LOXL1 (Homo sapiens, UniProt Q08397); assay: Amplex Red oxidation assay, LOXL1 inhibition
T1 construct: made in house
T1 sequence (Q08397 96-574): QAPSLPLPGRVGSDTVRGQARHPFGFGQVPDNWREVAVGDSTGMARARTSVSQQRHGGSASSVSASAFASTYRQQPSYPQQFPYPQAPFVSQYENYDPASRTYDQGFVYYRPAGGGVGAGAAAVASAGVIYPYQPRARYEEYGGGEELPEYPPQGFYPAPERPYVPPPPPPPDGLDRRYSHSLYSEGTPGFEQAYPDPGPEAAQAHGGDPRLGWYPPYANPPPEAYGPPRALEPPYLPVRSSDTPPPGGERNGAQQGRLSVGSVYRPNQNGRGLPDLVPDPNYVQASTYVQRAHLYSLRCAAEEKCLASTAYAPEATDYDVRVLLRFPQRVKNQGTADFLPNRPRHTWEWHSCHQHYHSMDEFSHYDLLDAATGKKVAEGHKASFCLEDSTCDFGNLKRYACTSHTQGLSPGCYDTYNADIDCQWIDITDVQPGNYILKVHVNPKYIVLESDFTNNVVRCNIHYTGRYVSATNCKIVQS
Experimental: (§1) The measurement of the enzymatic activity of all lysyl oxidase family members was based on the detection of hydrogen peroxide with an Amplex-Red oxidation assay, as previously described; miniaturized in 384 well formats, with the appropriate combination of substrate and assay buffer for each individual enzyme. After a 30 min pre-incubation of the enzyme at 37 °C with the test compound (or with different incubation times for the time-dependency assay), one volume of reaction mixture containing 120 μM Amplex Red (AR) (Life Technologies), 1.5 U/mL horseradish peroxidase (HRP) (Sigma-Aldrich) and the specific substrate was added to each sample. The relative fluorescence units (RFU) were then measured every 2.5 min for 30 min at 37 °C, excitation 565 nm and emission 590, on a BMG Clariostar Microplate Reader. All the substrates were used at concentrations corresponding to their Km towards the corresponding enzyme, or with a range of different concentrations for the substrate competition experiments.
(§2) Lysyl oxidases assay buffer contained 1.2 M urea, 50 mM sodium borate buffer, pH 8.2 and 100 µM β-aminoproprionitrile (BAPN, Sigma-Aldrich) was used for low control.
(§3) Recombinant human LOXL1 was expressed and purified from cDNA (GeneArt) and 10 mM putrescine was used as substrate. Recombinant human and mouse LOXL2 (R&D Systems) were challenged with 5 mM putrescine (Sigma-Aldrich) as the substrate. Rat and dog recombinant LOXL2 were amplified and purified in house from HEK-293 clones kindly provided by Dr. Fernando Rodríguez Pascual, Madrid University, and used in the same conditions as for the human form. 2 mM putrescine was used as the substrate for recombinant human LOXL3 (R&D Systems) and LOXL4 (Dr. Fernando Rodríguez Pascual, university of Madrid, Spain) assays.

[2] = target: T2, recombinant human LOXL3 (Homo sapiens, UniProt P58215); assay: Amplex Red oxidation assay, LOXL3 inhibition
T2 construct: purchased R&D Systems
T2 sequence (P58215 26-753): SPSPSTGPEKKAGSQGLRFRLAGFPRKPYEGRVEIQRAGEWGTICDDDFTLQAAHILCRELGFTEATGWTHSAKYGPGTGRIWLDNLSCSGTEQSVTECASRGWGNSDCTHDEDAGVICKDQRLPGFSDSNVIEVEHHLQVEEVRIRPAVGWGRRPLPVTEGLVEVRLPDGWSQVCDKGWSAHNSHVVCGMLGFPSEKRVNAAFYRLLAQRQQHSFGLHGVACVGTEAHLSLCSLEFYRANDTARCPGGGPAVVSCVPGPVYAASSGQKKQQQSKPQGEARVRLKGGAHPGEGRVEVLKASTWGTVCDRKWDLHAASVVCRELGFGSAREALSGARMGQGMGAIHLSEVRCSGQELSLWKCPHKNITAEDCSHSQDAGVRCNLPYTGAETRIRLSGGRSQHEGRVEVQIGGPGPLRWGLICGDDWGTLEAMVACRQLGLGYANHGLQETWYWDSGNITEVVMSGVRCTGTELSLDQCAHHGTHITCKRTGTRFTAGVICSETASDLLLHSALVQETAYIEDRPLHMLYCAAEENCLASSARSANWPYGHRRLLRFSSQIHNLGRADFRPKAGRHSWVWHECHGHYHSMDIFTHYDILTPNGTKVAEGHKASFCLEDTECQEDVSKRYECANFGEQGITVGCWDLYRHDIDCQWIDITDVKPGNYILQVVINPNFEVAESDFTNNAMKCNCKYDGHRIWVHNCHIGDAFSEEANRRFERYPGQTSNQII
Experimental: as §1, §2, §3

[3] = target: T3, Human recombinant LOXL2 (Homo sapiens, UniProt Q9Y4K0); assay: Amplex Red oxidation assay, LOXL2 inhibition
T3 construct: purchased R&D Systems
T3 sequence (Q9Y4K0 26-774): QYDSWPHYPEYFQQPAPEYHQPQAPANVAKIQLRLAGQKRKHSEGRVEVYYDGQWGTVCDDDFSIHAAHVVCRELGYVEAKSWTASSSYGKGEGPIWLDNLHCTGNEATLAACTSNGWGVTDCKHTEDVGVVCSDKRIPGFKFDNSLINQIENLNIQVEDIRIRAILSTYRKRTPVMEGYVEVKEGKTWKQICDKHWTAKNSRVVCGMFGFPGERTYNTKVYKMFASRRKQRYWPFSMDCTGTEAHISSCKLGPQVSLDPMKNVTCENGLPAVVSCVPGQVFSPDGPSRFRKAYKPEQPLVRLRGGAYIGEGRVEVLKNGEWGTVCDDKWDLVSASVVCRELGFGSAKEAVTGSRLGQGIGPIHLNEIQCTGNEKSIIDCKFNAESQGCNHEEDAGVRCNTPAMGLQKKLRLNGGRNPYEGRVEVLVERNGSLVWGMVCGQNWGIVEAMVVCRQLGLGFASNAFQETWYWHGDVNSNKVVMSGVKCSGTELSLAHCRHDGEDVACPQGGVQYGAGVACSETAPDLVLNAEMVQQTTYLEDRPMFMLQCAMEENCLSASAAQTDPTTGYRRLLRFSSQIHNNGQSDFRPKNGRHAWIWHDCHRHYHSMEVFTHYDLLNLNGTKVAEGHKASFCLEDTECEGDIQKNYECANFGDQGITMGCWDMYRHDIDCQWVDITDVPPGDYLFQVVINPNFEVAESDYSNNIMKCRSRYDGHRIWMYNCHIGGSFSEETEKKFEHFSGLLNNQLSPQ
Experimental: For compound oxidation assays, the amount of hydrogen peroxide generated at a single concentration (30 µM) of compound relative to DMSO was measured.
as §1, §2, §3

[4] = 30 min pre-incubation, read-out: rh LOXL1 IC50
[5] = 30 min pre-incubation, read-out: rh LOXL3 IC50
[6] = 30 min pre-incubation, read-out: LOXL2 IC50
[7] = log conc -4.5229, read-out: Fig 2A inhibition (mean)
[8] = log conc -5, read-out: Fig 2A inhibition (mean)
[9] = log conc -5.4771, read-out: Fig 2A inhibition (mean)
[10] = log conc -5.9542, read-out: Fig 2A inhibition (mean)
[11] = log conc -6.4313, read-out: Fig 2A inhibition (mean)
[12] = log conc -6.9083, read-out: Fig 2A inhibition (mean)
[13] = log conc -7.3851, read-out: Fig 2A inhibition (mean)
[14] = log conc -7.8633, read-out: Fig 2A inhibition (mean)
[15] = log conc -8.3372, read-out: Fig 2A inhibition (mean)
[16] = log conc -8.8239, read-out: Fig 2A inhibition (mean)
[17] = log conc -9.301, read-out: Fig 2A inhibition (mean)
[18] = read-out: Human Recombinant LOXL1 pIC50±SD (converted)
[19] = read-out: Human Recombinant LOXL3 pIC50±SD (converted)

`N#CCCN` [BAPN, β-aminoproprionitrile, reference compound] was tested, and the “Human Recombinant LOXL1 pIC50±SD” value [1] was 5.6 ± 0.1, the IC50 [1, 4] was 2460 nM and the “Human Recombinant LOXL3 pIC50±SD” value [2] was 6.3 ± 0.1. The IC50 [2, 5] was 510 nM, the “Human Recombinant LOXL2 pIC50±SD” value [3] was 6.4 ± 0.1 and the IC50 [3, 6] was 390 nM.
With `NC/C=C(\F)CS(=O)(=O)c1ccccc1` [PXS-4787] the IC50 [1, 4] was 3000 nM and 3230 nM, the inhibition at 30 µM [1, 7] was 97.5% and the inhibition at 10 µM [1, 8] was 84.7%. For the same molecule, the inhibition at 3.333 µM [1, 9] was 56.4%, the inhibition at 1.111 µM [1, 10] was 26.9% and the inhibition at 0.3704 µM [1, 11] was 13.6%. It also gave an inhibition at 0.1235 µM [1, 12] of 6.04%, an inhibition at 0.0412 µM [1, 13] of 2.88% and an inhibition at 0.0137 µM [1, 14] of 3.87%. The inhibition at 0.0046 µM [1, 15] was 0.808%, the inhibition at […] [1, 16] was -1.89% and the inhibition at 0.0005 µM [1, 17] was 1.05%. The IC50 [1, 18] was 3160 nM, the IC50 [2, 5] was 1420 nM and the inhibition at 30 µM [2, 7] was 99.7%. It also gave an inhibition at 10 µM [2, 8] of 94.8%, an inhibition at 3.333 µM [2, 9] of 75.7% and an inhibition at 1.111 µM [2, 10] of 41.8%. For the same molecule, the inhibition at 0.3704 µM [2, 11] was 18.9%, the inhibition at 0.1235 µM [2, 12] was 6.04% and the inhibition at 0.0412 µM [2, 13] was -0.564%. The inhibition at 0.0137 µM [2, 14] was 1.57%, the inhibition at 0.0046 µM [2, 15] was -2.27% and the inhibition at […] [2, 16] was -2.78%. The inhibition at 0.0005 µM [2, 17] was -0.598%, the IC50 [2, 19] was 1260 nM and the IC50 [3, 6] was 600 nM. For the same molecule, the inhibition at 30 µM [3, 7] was 98.4%, the inhibition at 10 µM [3, 8] was 95.6% and the inhibition at 3.333 µM [3, 9] was 87.6%. It also gave an inhibition at 1.111 µM [3, 10] of 67.7%, an inhibition at 0.3704 µM [3, 11] of 40.3% and an inhibition at 0.1235 µM [3, 12] of 18.8%. It also gave an inhibition at 0.0412 µM [3, 13] of 9.34%, an inhibition at 0.0137 µM [3, 14] of 2.56% and an inhibition at 0.0046 µM [3, 15] of 0.119%. The inhibition at […] [3, 16] was -0.297%, the inhibition at 0.0005 µM [3, 17] was -1.19% and the IC50 ([3]; read-out: Human Recombinant LOXL2 pIC50±SD (converted)) was 631 nM.
Work on `NC/C=C(\F)C(F)(F)S(=O)(=O)c1ccccc1` [PXS-6302] yielded an IC50 [1, 4] of 3420 nM, an IC50 [1, 18] of 3160 nM and an IC50 [2, 5] of 1540 nM. The IC50 [2, 19] was 1580 nM, the “Human Recombinant LOXL2 pIC50±SD” value [3] was 6.4 ± 0.2 and the IC50 [3, 6] was 430 nM.
